“Also recorded” adds a separate entry of the source. Where two headings read alike, the source gives them in different places.
Legend:
RCC-2 cells = assay: Modulation of intrinsic drug resistance, RCC-2; type: cell-based, rat; settings: IC50 drug alone / IC50 drug + modulator, at nontoxic concentration limit
Protocol: (§1) Mid-exponential cultures were used for all assays. The RCC-2 and RCC-5 cell lines were seeded into 24-well plates at 2×10^4 cells/well and allowed to attach to the substratum for 16-18 h prior to treatment. The S180 cell lines were seeded into culture tubes at 1×10^5 cells/ml and treated immediately. Cytotoxicity was determined by quantitation of population growth after 72 h incubation by electronic particle counter (Coulter Electronics, Hialeah, Fla.). The human tumor cell lines were used in a clonogenic assay for cytotoxicity. Cells were seeded at 300 cells/dish, incubated overnight and then treated. Colonies were scored 7-11 days later. In all assays of analog modulation of drug sensitivity, the analog was added minutes prior to the addition of cytotoxic drug.
(§2) *calculated as the IC50 of the drug alone divided by the IC50 o
(§3) the [drug modulator] combination. Data are presented from tretments with
(§4) the nontoxic concentration limit of each analog as noted.

S180/A3 cells = assay: Modulator potency in MDR cells: reversal of acquired resistance, S180/A3; type: cell-based, murine
Protocol: as §1
(§5) To evaluate the ability of vindoline and the two diastereoisomeric VBL analogs to modulate the MDR phenotype (acquired resistance) of the A3 and A10 cell stains, we determined the concentration of compound required to restore drug sensitivities to parental levels. This was done by exposing the MDR cell line to a concentration range of modulator in the presence VBL, VCR and ADM at the respective IC70s of the parental cell line. The cytotoxicity curves for A3 and A10 cells, shown in FIG. 5, are distinctive among the three vinca alkaloids examined. In each cell line, there was a minimum concentration of modulator that elicited 70% growth inhibition for each drug - i.e. the reversing concentration.
(§6) *The minimal concentration of modulator required to restore the drug
(§7) sensitivity of S180/MDR cell strains to that of parental S180 cells. Data
(§8) are the averages of 2-3 separate experiments, S.D. ≤20%.

S180 cells, parental = assay: Modulation of intrinsic drug resistance, parental S180; type: cell-based, murine; settings: for modulation of sensitivity of parental S180 cells to VBL, VCR and ADM (in words): all three drugs
Protocol: as §1
The ability of the compounds to modulate drug sensitivity in parental cells was studied over a range of concentrations of each compound, from 10^-6 M to the non-toxic (IC10-20) or solubility limit. […] From such experiments, we determined a sensitivity index derived from the IC50 of the drug without modulator treatment divided by the drug IC50 at each concentration of modulator.
When the sensitivity index for each drug, VBL, VCR and ADM is plotted versus the modulator concentration (FIG. 4), we can compare the relative potencies of the compounds as modulators of drug toxicity to the parental S180 cells.
as §2, §3
FIG. 4 represents the potency of the vinca alkaloid compounds as modulators of drug sensitivity in S180 cells. The enhancement of sensitivity was calculated as the sensitivity index=IC50 of the drug alone divided by the IC50 of the drug+modulator. The IC50s for ADM (o) VBL (Δ), or VCR (.quadrature.) were determined over a concentration range of each modulator from data such as those depicted in FIG. 3. The values presented were averaged from duplicate samples of two separate experiments, S.D. <15% of the mean.

S180/A10 cells = assay: Modulator potency in MDR cells: reversal of acquired resistance, S180/A10; type: cell-based, murine
Protocol: as §1, §5, §6, §7, §8

[1] = Inhibition of population growth (cytotoxicity), rat colon adenocarcinoma RCC-2; type: cell-based; settings: rat, rcc-2 cells; RCC-2; Table III; read-out: Modulator concentration (nontoxic concentration limit of the analog)
Description: (§9) The analogs were examined in a panel of tumor cell lines of both intrinsic and acquired drug resistance, as described in Table 1. The rat colon adenocarcinoma cell lines RCC-2 and RCC-5 (ref. 13) were maintained in Ham's F12 medium supplemented with 5% heat-inactivated, fetal bovine serum (Sterile Systems. Hyclone, Logan, Utah). The two rat colon cancer cell lines differ in their degree of cellular differentiation; whereas the RCC-2 cell line is undifferentiated, the RCC-5 cell line is highly mucinous. The human epidermoid carcinoma cell line KB-3-1 and its MDR variant KB-Vl, selected by VBL treatment (ref. 14; courtesy of M. Gottesman. National Cancer Institute), was maintained in DMEM medium supplemented with 10%, heat-inactivated, fetal bovine serum. The murine sarcoma cell line […] and its MDR strains A3 and A10 selected by ADM treatment (ref. 15; courtesy of T. Tritton, Dept. Pharmacology, Univ. Vermont). were maintained in DMEM medium supplemented with 10% heat-inactivated, horse serum (Hazelton Biolog. Lenexa, Kans.). Stock cultures were subcultured twice weekly upon reaching the late exponential phase of population growth: population doubling times were 18-24 h. Antibiotics were not used in stock or experimental cultures. The MDR cell strains were grown in drug-free media for 48 h prior to experimental use.
as §1

[2] = Inhibition of population growth (cytotoxicity), rat colon adenocarcinoma RCC-5; type: cell-based; settings: rat, rcc-5 cells; RCC-5; Table III; read-out: Modulator concentration (nontoxic concentration limit of the analog)
Description: as §9, §1

[3] = system: S180/MDR cell system and rat colon cancer cell lines; assay: Cytotoxicity in the S180/MDR cell system and the rat colon cancer cell lines; type: cell-based, mouse; settings: S-180, 72 h
Description: as §9, §1

RCC-5 cells = assay: Modulation of intrinsic drug resistance, RCC-5; type: cell-based, rat; settings: RCC-5; IC50 drug alone / IC50 drug + modulator, at nontoxic concentration limit
Protocol: as §1, §2, §3, §4
FIG. 9 represents the modulation of VCR sensitivity in the RCC-12 (A) and RCC-5 (B) cell lines by the analog C-20'-deoxy deethyl vincovaline. Population growth was determined after 72 hours incubation in the absence (o), or presence of 10 μM (o), 20 μM (Δ), or 50 μM of analog. Data presented are from a typical experiment.

[4] = Inhibition of population growth (cytotoxicity), S180 sarcoma, parental; type: cell-based, mouse; settings: mouse, s180 cells; S180; Table III; read-out: Modulator concentration (nontoxic concentration limit of the analog)
Description: as §9, §1

[5] = system: parental cell lines (S180, RCC-2, RCC-5); assay: Modulation of intrinsic resistance in the parental cell lines (S180, RCC-2, RCC-5); type: cell-based, mouse, rat
Protocol: as §1, §2, §3, §4

[6] = system: S180 MDR cell strains A3 and A10; assay: Modulation of acquired drug resistance in the S180 MDR cell strains A3 and A10; type: cell-based, murine
Protocol: as §1, §5
FIG. 5 represents the modulation of multidrug resistance in the MDR cell strains by the vinca alkaloids. Vindoline (A), vincovaline (B), or the analog C-20'-deoxy vincovaline (C) was added, at various concentrations, to A3 (closed symbols) or A10 (opened symbols) cell cultures containing the parental IC70 of each drug: 2.0×10^-7 M. ADM (circles: 1.5×10^-8 M VBL (triangles); and 4.5×10^-8 M; VCR (squares). Population growth was determined 72 hours later.
FIG. 6 represents the relationship between cellular drug resistance level and the minimal modulator concentration required for complete reversal of drug resistance. The drugs examined were ADM (o), VBL (Δ), and VCR (.quadrature.). The amount (concentration) of modulator, necessary to reverse each level of drug resistance contained in the A3 and A10 cell lines, was determined from data such as those of FIG. 5. The values presented were averaged from duplicate samples of two separate experiments, S.D.<15% of the mean. The arrows denote the non-toxic concentration limit for the modulator; in the case of Vincovaline this value is dependent on the MDR cell strain, 2×10^-5 M, A3; 5×10^-5 M. A10.
FIG. 11 represents the modulation of multidrug resistance in the S180 MDR cell strains A3 and A10. The cellular drug resistance level is plotted against the minimal concentration of C-20'-deoxy deethyl vincovaline required for the complete reversal of drug resistance to ADM (o), VBL (Δ), and VCR (.quadrature.). In the case of high level ADM resistance […], the sensitivity of the cells was restored to 80% of the parental value. The arrow denotes the non-toxic concentration limit of the analog.

[7] = system: S180 cell system (S180, A3, A10); assay: Inherent cytotoxicity in the S180 cell system (S180, A3, A10); type: cell-based, murine
Description: as §9, §1
FIG. 2 represents the toxicity of the vinca alkaloid compounds to population growth. Vindoline, vincovaline or the analog, C-20'-deoxy vincovaline was added, at various concentrations, to S180 (.cndot.), A3 (o), or A10 (Δ) cell cultures. The population cell number was determined 72 hours later.

[8] = S180, IC50 drug alone / IC50 drug + modulator, at nontoxic concentration limit

CCC1CC2CN(CCc3c([nH]c4ccccc34)C(C(=O)OC)(c3cc4c(cc3OC)N(C)C3C(O)(C(=O)OC)C(OC(C)=O)C5(CC)C=CCN6CCC43C65)C2)C1 (stereo not drawn) [analog n° 353, C-14'-epi-C-20'-deoxy-VBL]
Maximum sensitization of parental cells by modulator, drug ADM (RCC-2 cells): 2.1
Maximum sensitization of parental cells by modulator, drug VBL (RCC-2 cells): 1.8
Maximum sensitization of parental cells by modulator, drug VCR (RCC-2 cells): 7.3
Modulator potency in MDR cells (minimal concentration restoring parental drug sensitivity), ADM (S180/A3 cells; ADM, drug resistance level 15): 35. μM
Modulator potency in MDR cells (minimal concentration restoring parental drug sensitivity), VBL (S180/A3 cells; VBL, drug resistance level 3): 4.0 µM
Modulator potency in MDR cells (minimal concentration restoring parental drug sensitivity), VCR (S180/A3 cells; VCR, drug resistance level 7): 4.0 µM
Maximum sensitization of parental cells by modulator, drug ADM (S180 cells, parental; [8]): 4.0
Maximum sensitization of parental cells by modulator, drug VBL (S180 cells, parental; [8]): 1.4
Maximum sensitization of parental cells by modulator, drug VCR (S180 cells, parental; [8]): 7.0
reversal of high level ADM resistance (S180/A10 cells; ADM, 90-fold resistance, A10): 80%
Modulator potency in MDR cells, ADM (value marked #) (S180/A10 cells; ADM, drug resistance level 90, #: significant (>50%) reversal at the maximum nontoxic concentration): 40. μM
Modulator potency in MDR cells (minimal concentration restoring parental drug sensitivity), VBL (S180/A10 cells; VBL, drug resistance level 10): 10.0 µM
Modulator potency in MDR cells (minimal concentration restoring parental drug sensitivity), VCR (S180/A10 cells; VCR, drug resistance level 17): 13.0 µM
MNTC at 72 h [1]: 10 µM
MNTC at 72 h [2]: 10 µM
IC50 [3]: ≥ 5 µM
Maximum sensitization of parental cells by modulator, drug ADM (RCC-5 cells): 6.4
Maximum sensitization of parental cells by modulator, drug VBL (RCC-5 cells): 1.6
Maximum sensitization of parental cells by modulator, drug VCR (RCC-5 cells): 3.5
MNTC at 72 h [4]: 40 µM
modulation of intrinsic cellular resistance to ADM and/or VCR (in words) ([5]; ADM, VCR): modulated intrinsic cellular resistance to ADM and/or VCR
effect on the sensitivity of parental cells to VBL (in words) ([5]; VBL): less effect on the sensitivity of parental cells to VBL
enhancement of VCR cytotoxicity in the parental cell lines ([5]; VCR): 7-18 fold
range of resistance levels over which parental sensitivity was restored ([6]; VBL, VCR and ADM): 3-90 fold

CCC12C=CCN3CC[C@@]4(c5ccc(OC)cc5N(C)[C@H]4[C@@](O)(C(=O)OC)[C@@H]1OC(C)=O)[C@@H]32 (some centres unmarked) [vindoline, reference compound]
modulation of sensitivity of parental S180 cells to VBL, VCR and ADM (in words) (S180 cells, parental): sensitized S180 cells to all three drugs with a similar dependence on its concentration; also recorded: sensitized the parental S180 cells to all three drugs
modulation of sensitivity of parental S180 cells to VBL, VCR and ADM (in words) (S180 cells, parental; listed as Vindoline): no evidence of selective modulation
reversal of high level ADM resistance (in words) (S180/A10 cells; A10 cells, 90 fold ADM resistance): limited in this activity by their own cytoxicity in the MDR cell lines
inherent cytotoxicity / resistance profile (in words) [7]: equitoxic to parental and MDR cell lines
IC50 ([7]; Mus musculus, S-180, S180 parental and MDR cell lines, read-out: IC50 (inhibition of cell growth)): 40 µM
inherent cytotoxicity / resistance profile (in words) ([7]; S180, A3, A10): inhibited the growth of the parental and MDR cell strains with a similar dependence on concentration
modulation of cellular resistance to VBL, VCR and ADM in MDR cell strains (in words) ([6]; A3 and A10): modulators of cellular resistance to VBL, VCR and ADM
relation of reversing concentration to degree of drug resistance (in words) ([6]; A3 and A10, VBL, VCR, ADM): This correllation was not observed
